Experimental data from patent publication US20060292158A1, “Method for the treatment of cancer using a novel pharmaceutical composition containing at least one dolastatin 10 derivative” (priority 2004, published 2006).
Where two headings read alike, the source gives them in different places.

What was measured:
[1] = test system: KPL-4 human breast carcinoma xenograft; assay: Antitumor activity in KPL-4 orthotopic xenograft in athymic nude mice, combination with trastuzumab (Example 1); assay type: in vivo; settings: monotherapy 3, 4 or 6 mg/kg; one week after final injection; control 2.5% DMSO-saline plus 20 mg/kg human IgG
Protocol: The KPL-4 human breast carcinoma cell line was kindly donated by Prof. Kurebayashi, Kawasaki Medical Center. The cells were cultured in Dulbecco's MEM (Sigma Chemical Co.) supplemented with 5% (v/v) fetal bovine serum (Roche Diagnostics).
One hundred forty (140) 5-week-old female athymic nude mice (BALB/c nu/nu) were purchased from Charles River Japan, Inc. (Yokohama, Japan). The mice were housed in an air-conditioned room (temperature 22±2° C., relative humidity 55±10%) under 12 h light/dark cycles. The mice were given sterilized CE-2 and tap water with 25μg/mL gentamycin ad libitum. […]
The in vivo evaluation procedure for anticancer drugs was based on the methods described by Plowman, et al. (1997) for xenograft models. […] The tumor volume and body weight of each mouse were measured twice a week. […] One week after the final injection, tumor growth inhibition (TGI) was calculated using the formula (1-T/C)×100 (%), where T (treated group) and C (control group) represent the mean tumor volume change. ED50 values were calculated from values of tumor growth inhibition on day 21 using the XL fit program. […]
Packaged software (SAS preclinical package version 5.0,SAS Institute Japan, Ltd.) was used for the statistical analysis. […] ED50s were calculated from values of tumor growth inhibition percentage using XL fit program #509 (MS Excel Add […], ID Business Solutions Ltd.)

[2] = test system: HT-29 human colorectal adenocarcinoma xenograft; assay type: in vivo; settings: day 31
Protocol: The HT-29 human colorectal adenocarcinoma cell line was purchased from American Type Culture Collection (Rockville, MD, U.S.A.). The cells were cultured in McCoy's 5a medium (Sigma-Aldrich Corporation, MO, U.S.A.) supplemented with 10% (v/v) fetal bovine serum (Roche Diagnostics KK, Tokyo, Japan).
Sixty of 5-week-old male athymic nude mice (BALB/c nu/nu) were purchased from Charles River Japan, Inc. (Yokohama, Japan). All mice were kept for 9 days in the animal facility of Kamakura Research Laboratories of Chugai Pharmaceutical Co., Ltd. before subjection to the experiment.
Capecitabine was dissolved by the 40 milli mol/L citrate buffered-5% Gum arabic solution (pH 6.0; Chugai Pharmaceutical Co., Ltd.).
The in vivo evaluation procedure for anticancer drugs was based on the methods described by Plowman, et al. (1997) for xenograft models. See, “Anticancer Drug Development Guide: Preclinical Screening, Clinical Trials, and Approval, Teicher B (ed) pp. 101-125, specifically Chap. 6, “Human Tumor Xenograft Models in NCI Drug Development”, hereby incorporated by reference. A single cell suspension of HT-29 (1.1×10^7 cells per mouse) was inoculated subcutaneously into the right flank of each mouse. The tumor volume was estimated by using the equation ab^2/2, where a and b represent tumor length and width, respectively. Mice bearing tumors of between 172 and 282 mm^3 were selected on day 10 after tumor inoculation and were randomly divided into 7 groups, consisting of 6 mice each. Mean tumor volume and body weight of the selected mice were 217 mm^3 and 25.0 g respectively. Drug administration was initiated after mice were divided into groups. […] Capecitabine (359 mg/kg or 539 mg/kg) and its vehicle were administered orally. Tumor volume and body weight of each mouse were measured twice a week. […] Tumor growth inhibition was calculated using the equation (1-ΔT/ΔC)×100, where ΔT represents the difference in tumor volume from the initial treatment date of the treated group and ΔC represents the difference in tumor volume from the initial treatment date of the vehicle group.

[3] = Maximum tolerated dose (neither lethality nor more than 20% body weight loss) in mice; settings: BALB/c nu/nu (athymic nude), mouse, in vivo, dose with neither lethality nor more than 20% body weight loss
From the text: The in vivo evaluation procedure for anticancer drugs was based on the methods described by Plowman, et al. (1997) for xenograft models. See, “Anticancer Drug Development Guide: Preclinical Screening, Clinical Trials, and Approval, Teicher B (ed) pp. 101-125, specifically Chap. 6, “Human Tumor Xenograft Models in NCI Drug Development”, hereby incorporated by reference.
See, “Anticancer Drug Development Guide: Preclinical Screening, Clinical Trials, and Approval, Teicher B (ed) pp. 101-125, specifically Chap. 6, “Human Tumor Xenograft Models in NCI Drug Development”, hereby incorporated by reference.
The in vivo evaluation procedure for anticancer drugs was based on the methods described by Plowman, et al. (1997) for xenograft models. See, “Anticancer Drug Development Guide: Preclinical Screening, Clinical Trials, and Approval, Teicher B (ed) pp. 101-125, specifically Chap.

In the case of `CC[C@H](C)[C@@H]([C@@H](CC(=O)N1CCC[C@H]1[C@H](SC)[C@@H](C)C(=O)N(C)CCc1cccc(O)c1)OC)N(C)C(=O)[C@@H](NC(=O)[C@H](C(C)C)N(C)C)C(C)C` [compound of formula (I-A), N-[1-({1-sec-Butyl-4-[2-(2-{[2-(3-hydroxy-phenyl)-ethyl]-methyl-carbamoyl}-1-methylsulfanyl-propyl)-pyrrolidin-1-yl]-2-methoxy-4-oxo-butyl}-methyl-carbamoyl)-2-methyl-propyl]-2-dimethylamino-3-methyl-butyramide], the “volume of tumor in comparison with control” value [1] is reported as “decreased significantly”, the “reduction of tumor growth” value ([2]; 3 mg/kg (1/2 MTD) i.v. weekly x3) is reported as 76% and the “reduction of tumor growth” value ([2]; 4 mg/kg (2/3 MTD) i.v. weekly x3) is reported as 101%. For the same compound, the MTD [3] was 6 mg/kg.
